Reference: paper PMC6474902, “Examination of novel 4-aminoquinoline derivatives designed and synthesized by a hybrid pharmacophore approach to enhance their anticancer activities” (Scientific Reports, 2019)
Entries after “also recorded” stand apart in the source; their conditions may differ. Where two headings read alike, the source gives them in different places.

Key:
MCF7 = assay: SRB antiproliferative/antigrowth assay; type: cell-based, human; conditions: SRB, 48 h post-treatment, mean of triplicates of at least two experiments, read-out: GI50 MCF7
Method: (§1) The antigrowth effects of 4-piperazinylquinoline sulfonyl analogs on human breast tumor cells was initially evaluated using MDA-MB468 (a PTEN defective, EGFR positive breast adenocarcioma), MDA-MB231 (p53 and pRB mutated, triple-negative breast carcinoma), and MCF7 (p53+/−, invasive ductal breast carcinoma) cell lines. In addition, the cytotoxicity of all the compounds was also evaluated with the 184B5 and MCF10A non-cancer immortalized breast epithelial cell lines, to determine if these newly synthesized compounds have differential cytotoxic effects on cancer and non-cancer cells. The panel of three breast cancer cell lines with different genetic back ground and the well-studied two non-cancer immortalized breast cell lines would provide insights into the efficacy and toxicity of the test compounds in the different genetic background and at different stages of tumor development. The dose response of each cell line was established by determining the number of viable cells after 48 h of continuous drug treatment against seven different concentrations (100 µM to 0.0064 µM) of each compound. The reading of sulphorodamine B (SRB) staining is known to accurately reflect the level of total cellular macromolecules/cell growth/proliferation[6],[23]. […] The data for CQ and cisplatin were included as references. […] The differences in the GI50 values may be attributable to such factors as the nature of the sulfonyl group and the halogen substitution on the 7th position of the 4-piperazinylquinoline ring system, and the genetic and biochemical background of the cell lines.
(§2) Antiproliferative/antigrowth effects were determined by a SRB-based protocol[6],[23]. For a typical screening experiment, 5,000–10,000 cells were inoculated into 100 µL medium per well of a 96-well microtiter plate as described previously. Briefly, after the inoculation, the microtiter plate was incubated at 37 °C, 5% CO2, 95% air and 100% relative humidity for 24 h, prior to addition of experimental drugs. Some of the sample wells were fixed with 25 µL of 50% tricholoroacetic acid (TCA) as a control of the cell population for each cell line at the time of drug addition (Tz). An aliquot of the frozen stock was thawed and diluted to a desired final maximum test-concentration with complete medium. Two to ten-fold serial dilutions were made to provide a total of seven drug concentrations (and a control [C]). Following addition of drugs, the culture plate was incubated for additional 48 h. Cells were fixed in situ by slowly adding 25 µL of ice-cold 50% (w/v) TCA (final concentration, 10% TCA), and were then incubated for 60 min at 4 °C. The supernatant was discarded, and the plate was washed five times with tap water, followed by air-dry. 50 µL of SRB solution at 0.4% (w/v) in 1% acetic acid was added to each well, and the plate was incubated for >30 min at room temperature. Unbound SRB was removed by five washes with tap water, followed by air-drying. The cells “stained” with SRB were solubilized with 10 mM trizma base, and the absorbance was read on an automated plate reader at a wavelength of 515–564 nm. The relative growth rate (%) was calculated for each of the compound concentrations according to the following formula: (Ti−Tz)/(C−Tz)×100
(§3) In the formula, time zero (Tz), control growth (C), and OD for different concentration of tested compounds (Ti). The GI50 for each compound was obtained from a non-linear Sigmoidal dose-response (variable slope) curve which is fitted by GraphPad Prism v.4.03 software. Values were calculated for each of these parameters if the level of activity was reached. However, if the effect was not reached or was exceeded, the value for that parameter was expressed as greater or less than the maximum or minimum concentration tested.

MDA-MB231 = assay: SRB antiproliferative/antigrowth assay; type: cell-based, human; conditions: for GI50: SRB, 48 h post-treatment, mean of triplicates of at least two experiments, read-out: GI50 MB231
Method: as §1, §2, §3

MDA-MB468 = assay: SRB antiproliferative/antigrowth assay; type: cell-based, human; conditions: SRB, 48 h post-treatment, mean of triplicates of at least two experiments, read-out: GI50 MB468
Method: as §1, §2, §3

184B5 = assay: SRB antiproliferative/antigrowth assay, non-cancer cells; type: cell-based, human; conditions: read-out: GI50 184B5
Method: as §1, §2, §3

MCF10A = assay: as above; type: cell-based, human; conditions: SRB, 48 h post-treatment, non-cancer breast epithelial cells, read-out: GI50 MCF10A
Method: as §1, §2, §3

[1] = tested on: MDA-MB231, MDA-MB468, MCF7 breast cancer cells; 184B5 and MCF10A non-cancer breast cells; assay: SRB assay, panel of breast cancer and non-cancer breast cell lines; type: cell-based, human; conditions: judged from GI50 values of Table 1
Method: as §1, §2, §3

[2] = Homo sapiens, 184B5, 48 h, SRB, 48 h post-treatment, non-cancer breast epithelial cells

Row | GI50 (MCF7; Homo sapiens, MCF7, 48 h) [µM] | GI50 (MDA-MB231; Homo sapiens, MDA-MB-231, 48 h) [µM] | GI50 (MDA-MB468; Homo sapiens, MDA-MB-468, 48 h) [µM] | melting point [°C] | SMILES | preferential antigrowth effect on cancer versus non-cancer cells (in words) [1] | GI50 (184B5; [2]) [µM] | GI50 (MCF10A; Homo sapiens, MCF-10A, 48 h) [µM] | further results
1 | – | – | – | – | N.N.[Cl][Pt][Cl] [Cisplatin, reference compound] | similar | – | – | GI50 (MCF7): 25.8 ± 0.4 µM; GI50 (MDA-MB231): 23.7 ± 0.2 µM; GI50 (MDA-MB468): 31 ± 0.5 µM; GI50 (184B5; SRB, 48 h post-treatment, non-cancer breast epithelial cells): 25.5 ± 0.4 µM; GI50 (MCF10A): 51.5 ± 0.9 µM
2 | 16.1 ± 0.6 | 34.1 ± 0.7 | 28.8 ± 0.7 | 190 to 192 | Cc1ccc(S(=O)(=O)N2CCN(c3ccnc4cc(Cl)ccc34)CC2)cc1 [Compound 8, 7-Chloro-4-(4-tosylpiperazin-1-yl)quinoline] | effective and preferential antigrowth effects on cancer cells; also recorded: stronger antigrowth/antiproliferation activity against cancer cells than non-cancer cells | 47.5 ± 0.9 | 44.4 ± 0.7 | –
3 | 22.3 ± 0.2 | 35 ± 0.8 | 27.5 ± 0.7 | 145 to 147 | CN(C)c1cccc2c(S(=O)(=O)N3CCN(c4ccnc5cc(Cl)ccc45)CC3)cccc12 [Compound 14, 5-(4-(7-Chloroquinolin-4-yl)piperazin-1-ylsulfonyl)-N,N-dimethylnaphthalen-1-amine] | effective and preferential antigrowth effects on cancer cells; also recorded: stronger antigrowth/antiproliferation activity against cancer cells than non-cancer cells | 28.3 ± 0.3 | 32.2 ± 0.3 | –
4 | 25.6 ± 0.3 | 44.4 ± 0.9 | 28.6 ± 0.7 | 116 to 118 | CS(=O)(=O)N1CCN(c2ccnc3cc(C(F)(F)F)ccc23)CC1 [Compound 16, 4-(4-Methanesulfonyl-piperazin-1-yl)-7-trifluoromethyl-quinoline] | effective and preferential antigrowth effects on cancer cells; also recorded: stronger antigrowth/antiproliferation activity against cancer cells than non-cancer cells | 93.9 ± 0.9 | 75.8 ± 0.8 | –
5 | 9.4 ± 0.3 | 32.2 ± 0.6 | 18.6 ± 0.6 | 199 to 201 | O=[N+]([O-])c1cccc(S(=O)(=O)N2CCN(c3ccnc4cc(C(F)(F)F)ccc34)CC2)c1 [Compound 21, 4-[4-(3-Nitro-benzenesulfonyl)-piperazin-1-yl]-7-trifluoromethyl-quinoline] | effective and preferential antigrowth effects on cancer cells; also recorded: stronger antigrowth/antiproliferation activity against cancer cells than non-cancer cells | 17.7 ± 0.2 | 15.4 ± 0.1 | –
6 | 5.2 ± 0.5 | 6.2 ± 0.5 | 5.8 ± 0.4 | – | Cc1ccc(S(=O)(=O)NCCCNc2ccnc3cc(Cl)ccc23)cc1 [Compound 26, N-[3-(7-Chloro-quinolin-4-ylamino)-propyl]-4-methyl-benzenesulfonamide] | effective and preferential antigrowth effects on cancer cells; also recorded: stronger antigrowth/antiproliferation activity against cancer cells than non-cancer cells | 9.6 ± 0.5 | 12.2 ± 0.6 | –
7 | 25.3 ± 1.3 | 55.9 ± 1.6 | 30.4 ± 1 | 171 to 173 | CS(=O)(=O)NCCCNc1ccnc2cc(C(F)(F)F)ccc12 [Compound 34, N-[3-(7-Trifluoromethyl-quinolin-4-ylamino)-propyl]-methanesulfonamide] | – | 59.5 ± 1.6 | 85 ± 1.2 | –
8 | 3.6 ± 0.3 | 6 ± 0.4 | 4.2 ± 0.2 | 110 to 112 | O=S(=O)(NCCCNc1ccnc2cc(C(F)(F)F)ccc12)c1ccc(-c2ccccc2)cc1 [Compound 36, Biphenyl-4-sulfonic acid [3-(7-trifluoromethyl-quinolin-4-ylamino)-propyl]-amide] | – | 2.8 ± 0.1 | 2.2 ± 0.3 | –
9 | 5.4 ± 0.3 | 12.8 ± 0.9 | 10.3 ± 0.6 | 70 to 72 | O=S(=O)(NCCCNc1ccnc2cc(C(F)(F)F)ccc12)c1ccc(Cl)cc1 [Compound 37, 4-Chloro-N-[3-(7-trifluoromethyl-quinolin-4-ylamino)-propyl]-benzenesulfonamide] | – | 7.6 ± 0.4 | 17.4 ± 0.1 | increase in potency on MDA-MB231 in comparison to methyl substituted compounds (25 and 34) (MDA-MB231): 3.5–4.4 fold
10 | 5.2 ± 0.3 | 7 ± 0.6 | 3.9 ± 0.1 | 117 to 119 | O=S(=O)(NCCCNc1ccnc2cc(C(F)(F)F)ccc12)c1ccc(Cl)cc1Cl [Compound 38, 2,4-Dichloro-N-[3-(7-trifluoromethyl-quinolin-4-ylamino)-propyl]-benzenesulfonamide] | – | 3.2 ± 0.1 | 5.3 ± 0.3 | –
11 | 8.3 ± 0.5 | 15.7 ± 1 | 9.1 ± 0.6 | 98 to 100 | O=[N+]([O-])c1cccc(S(=O)(=O)NCCCNc2ccnc3cc(C(F)(F)F)ccc23)c1 [Compound 39, 3-Nitro-N-[3-(7-trifluoromethyl-quinolin-4-ylamino)-propyl]-benzenesulfonamide] | – | 8 ± 0.8 | 10.6 ± 0.9 | –
12 | 7.7 ± 0.6 | 14.2 ± 1 | 9.7 ± 0.3 | 199 to 201 | CN(C)c1cccc2c(S(=O)(=O)NCCCNc3ccnc4cc(C(F)(F)F)ccc34)cccc12 [Compound 41, 5-Dimethylamino-naphthalene-1-sulfonic acid [3-(7-trifluoromethyl-quinolin-4-ylamino)-propyl]-amide] | – | 3.7 ± 0.2 | 6.5 ± 0.3 | –

Row | SMILES | GI50 (MCF7; Homo sapiens, MCF7, 48 h) [µM] | GI50 (MDA-MB231; Homo sapiens, MDA-MB-231, 48 h) [µM] | GI50 (MDA-MB468; Homo sapiens, MDA-MB-468, 48 h) [µM] | melting point [°C] | preferential antigrowth effect on cancer versus non-cancer cells (in words) [1] | GI50 (184B5; [2]) [µM] | GI50 (MCF10A; Homo sapiens, MCF-10A, 48 h) [µM] | further results
13 | O=[N+]([O-])c1ccc(S(=O)(=O)NCCCNc2ccnc3cc(Cl)ccc23)c([N+](=O)[O-])c1 [Compound 31, N-[3-(7-Chloro-quinolin-4-ylamino)-propyl]-2,4-dinitro-benzenesulfonamide] | – | – | – | 238 to 240 | – | – | – | GI50 (MCF7; Homo sapiens, MCF7): 6.2 ± 0.3 µM; increase in antigrowth activity against MDA-MB231 compared to mono nitro substituted compounds (30 and 39) (MDA-MB231): 1.7–2.3 fold; GI50 (MDA-MB231; Homo sapiens, MDA-MB-231): 8.9 ± 0.7 µM; GI50 (MDA-MB468; Homo sapiens, MDA-MB-468): 7.4 ± 0.2 µM; GI50 (184B5; Homo sapiens, 184B5, 48 h): 9.1 ± 0.6 µM; GI50 (MCF10A; Homo sapiens, MCF-10A): 19.8 ± 0.9 µM
